Measured values from ChEMBL document CHEMBL1201862, “PubChem BioAssay data set” (2004).
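Exposure lasted 48 hours, with cells grown in 96-well plates and compounds tested at five concentrations. GI50 = concentration required for 50% inhibition of growth.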 Activity calls are given as the source filed them. Cut-off read from the data, not from the text of the source: active = GI50 up to about 1.1 µM and inactive = higher.

How the values were obtained:
Experiment in all cases: DTP human tumour cell line panel, 48 h
RXF 393 = tested on: RXF 393
SK-MEL-2 = tested on: SK-MEL-2
MDA-MB-231 = tested on: MDA-MB-231
SN12C = tested on: SN12C
NCI-H460 = tested on: NCI-H460
OVCAR-5 = tested on: OVCAR-5
786-0 = tested on: 786-0
NCI-H23 = tested on: NCI-H23
NCI/ADR-RES = tested on: NCI/ADR-RES
Hs-578T = tested on: Hs-578T
K562 = tested on: K562
COLO 205 = tested on: COLO 205
TK-10 = tested on: TK-10
SK-MEL-28 = tested on: SK-MEL-28
SF-539 = tested on: SF-539
HT-29 = tested on: HT-29
KM12 = tested on: KM12
MDA-N = tested on: MDA-N
OVCAR-8 = tested on: OVCAR-8
CCRF-CEM = tested on: CCRF-CEM

Measured: GI50

C1=Cc2ccccc2C1.C=C(C)c1ccccc1.[N-]=[N+]=Nc1ccccc1
inactive: RXF 393 > 100 µM | SK-MEL-2 > 100 µM | MDA-MB-231 > 100 µM | SN12C > 100 µM | NCI-H460 90.4 µM | OVCAR-5 > 100 µM | 786-0 > 100 µM | NCI-H23 > 100 µM | NCI/ADR-RES > 100 µM | Hs-578T 39.1 µM | K562 46.9 µM | COLO 205 > 100 µM | TK-10 > 100 µM | SK-MEL-28 > 100 µM | SF-539 > 100 µM | HT-29 42.7 µM | KM12 50.5 µM | MDA-N 72.3 µM | OVCAR-8 > 100 µM

Cc1ccc(NC(=O)C(=O)C2C(=O)C3=C(CC2(C)C)NC2C=CC=CC2S3)c(C)c1 (configuration not stated)
inactive: RXF 393 > 100 µM | SK-MEL-2 > 100 µM | MDA-MB-231 53.5 µM | SN12C > 100 µM | NCI-H460 > 100 µM | 786-0 66.4 µM | NCI-H23 > 100 µM | NCI/ADR-RES > 100 µM | CCRF-CEM > 100 µM | Hs-578T 51.3 µM | COLO 205 > 100 µM | TK-10 > 100 µM | SK-MEL-28 > 100 µM | SF-539 43.8 µM | HT-29 > 100 µM | KM12 > 100 µM | MDA-N > 100 µM | OVCAR-8 37.5 µM

COc1ccc(/N=C/N(C)C)c(C)c1
inactive: RXF 393 10.6 µM | SK-MEL-2 5.15 µM | MDA-MB-231 5.83 µM | SN12C 14.2 µM | OVCAR-5 20.5 µM | 786-0 13.6 µM | NCI-H23 2 µM | NCI/ADR-RES 44.7 µM | CCRF-CEM 3.28 µM | Hs-578T 1.52 µM | K562 2.51 µM | COLO 205 10.5 µM | TK-10 19.8 µM | SK-MEL-28 12.6 µM | SF-539 22.9 µM | HT-29 5.4 µM | MDA-N 6.18 µM | OVCAR-8 7.13 µM

Clc1ccc2nc3[nH]nc(Cl)c3nc2c1
inactive: RXF 393 35 µM | SK-MEL-2 40.6 µM | MDA-MB-231 57.7 µM | SN12C 38.5 µM | NCI-H460 40.1 µM | OVCAR-5 48.1 µM | 786-0 61.5 µM | NCI-H23 48.1 µM | NCI/ADR-RES 56.2 µM | Hs-578T 22.7 µM | K562 52.4 µM | COLO 205 52.5 µM | TK-10 56.5 µM | SK-MEL-28 84.7 µM | SF-539 40.8 µM | HT-29 59.3 µM | KM12 59.3 µM | MDA-N 76.9 µM | OVCAR-8 71.3 µM

CC(=O)NC1C(OCC(=O)NCCNc2ccc([N+](=O)[O-])c3[nH]c4ccccc4c(=O)c23)C(O)C(CO)OC1(C)OCc1ccccc1 (configuration not stated)
inactive: RXF 393 > 100 µM | SK-MEL-2 > 100 µM | MDA-MB-231 > 100 µM | SN12C > 100 µM | NCI-H460 50.4 µM | OVCAR-5 > 100 µM | 786-0 > 100 µM | NCI-H23 > 100 µM | NCI/ADR-RES > 100 µM | CCRF-CEM > 100 µM | Hs-578T > 100 µM | K562 > 100 µM | COLO 205 > 100 µM | TK-10 > 100 µM | SF-539 > 100 µM | HT-29 > 100 µM | KM12 > 100 µM | MDA-N > 100 µM | OVCAR-8 > 100 µM

O=[N+]([O-])c1ccc2c(c1)c(OCc1ccccc1)nn2Cc1ccccc1
inactive: RXF 393 34.2 µM | SK-MEL-2 > 100 µM | MDA-MB-231 > 100 µM | SN12C > 100 µM | NCI-H460 > 100 µM | OVCAR-5 > 100 µM | 786-0 55 µM | NCI-H23 > 100 µM | NCI/ADR-RES > 100 µM | CCRF-CEM 40.1 µM | Hs-578T 52.8 µM | K562 > 100 µM | TK-10 62.1 µM | SK-MEL-28 72.6 µM | SF-539 34.5 µM | HT-29 > 100 µM | KM12 > 100 µM | MDA-N > 100 µM | OVCAR-8 > 100 µM

CC1OC(n2cnc3c(N)nc(Cl)nc32)C(C)(O)C1O (configuration not stated)
inactive: RXF 393 > 25 µM | SK-MEL-2 > 25 µM | MDA-MB-231 > 25 µM | SN12C > 25 µM | OVCAR-5 > 25 µM | 786-0 > 25 µM | NCI-H23 > 25 µM | NCI/ADR-RES > 25 µM | CCRF-CEM > 25 µM | Hs-578T > 25 µM | K562 > 25 µM | COLO 205 > 25 µM | TK-10 > 25 µM | SF-539 > 25 µM | HT-29 > 25 µM | KM12 > 25 µM | MDA-N > 25 µM | OVCAR-8 19.8 µM

CCC(c1ccccc1)c1cc(C(C)(C)C)cc(C(C)(C)C)c1O (configuration not stated)
inactive: RXF 393 20 µM | SK-MEL-2 15.7 µM | MDA-MB-231 18.1 µM | SN12C 17.3 µM | NCI-H460 17.5 µM | OVCAR-5 13.7 µM | 786-0 15.6 µM | NCI-H23 17.2 µM | NCI/ADR-RES 15.4 µM | Hs-578T 16.3 µM | K562 16.7 µM | COLO 205 18.7 µM | TK-10 15.5 µM | SK-MEL-28 18.3 µM | SF-539 17.4 µM | HT-29 14.9 µM | KM12 18.4 µM | MDA-N 17.1 µM | OVCAR-8 17.3 µM

COc1ccccc1-c1cc(=O)c2ccc(OC)c(OC)c2o1
inactive: RXF 393 27.1 µM | SK-MEL-2 70.6 µM | MDA-MB-231 > 100 µM | SN12C 63.1 µM | NCI-H460 49.5 µM | OVCAR-5 > 100 µM | 786-0 89.1 µM | NCI-H23 > 100 µM | NCI/ADR-RES 26.4 µM | CCRF-CEM > 100 µM | Hs-578T 41.7 µM | K562 > 100 µM | COLO 205 49.3 µM | TK-10 46.6 µM | SK-MEL-28 > 100 µM | SF-539 > 100 µM | HT-29 34.3 µM | MDA-N 48.2 µM | OVCAR-8 54.6 µM

CCCCC/C=C1/CC(CO)(COC(=O)CC(C(C)C)C(C)C)OC1=O (configuration not stated)
inactive: RXF 393 16.3 µM | SK-MEL-2 13.3 µM | MDA-MB-231 15.6 µM | SN12C 12.4 µM | NCI-H460 13.2 µM | OVCAR-5 15.4 µM | 786-0 8.53 µM | NCI-H23 16 µM | NCI/ADR-RES 17.9 µM | CCRF-CEM 16 µM | Hs-578T 2.28 µM | K562 5.75 µM | COLO 205 3.24 µM | TK-10 11.8 µM | SK-MEL-28 13 µM | HT-29 19.5 µM | KM12 16.9 µM | MDA-N 3.67 µM | OVCAR-8 17.2 µM
